Measured values taken from paper PMC8958511, “Development of Sulfamoylated 4-(1-Phenyl-1H-1,2,3-triazol-4-yl)phenol Derivatives as Potent Steroid Sulfatase Inhibitors for Efficient Treatment of Breast Cancer” (Journal of Medicinal Chemistry, 2022).
Several values for one entry are separate records, joined by “and”; a condition that tells them apart may be missing. Equal entries are not always repeated. Where two headings read alike, the source gives them in different places.

Legend:
STS = system: STS; design: method as in earlier work; details: STS inhibitory effect, system not given; ref 14−16; cited from earlier work
STS in MCF-7 cells = target: T1, STS in MCF-7 cells (Homo sapiens, UniProt P08842); assay: radioisotope cellular assay with [3H]E1S in MCF-7 cells; format: cell-based; details: for remaining activity at 0.001 µM / remaining activity at 0.01 µM / remaining activity at 0.1 µM: MCF7, 20 h; for remaining activity at 0.001 µM: read-out: residual STS activity [%] 1 nM; for remaining activity at 0.01 µM: read-out: residual STS activity [%] 10 nM; for remaining activity at 0.1 µM: read-out: residual STS activity [%] 100 nM
T1 construct: The radioisotope cellular assay was performed using the MCF-7 cell line; endogenous in cells; host or cells: MCF-7
T1 sequence (P08842 22-583): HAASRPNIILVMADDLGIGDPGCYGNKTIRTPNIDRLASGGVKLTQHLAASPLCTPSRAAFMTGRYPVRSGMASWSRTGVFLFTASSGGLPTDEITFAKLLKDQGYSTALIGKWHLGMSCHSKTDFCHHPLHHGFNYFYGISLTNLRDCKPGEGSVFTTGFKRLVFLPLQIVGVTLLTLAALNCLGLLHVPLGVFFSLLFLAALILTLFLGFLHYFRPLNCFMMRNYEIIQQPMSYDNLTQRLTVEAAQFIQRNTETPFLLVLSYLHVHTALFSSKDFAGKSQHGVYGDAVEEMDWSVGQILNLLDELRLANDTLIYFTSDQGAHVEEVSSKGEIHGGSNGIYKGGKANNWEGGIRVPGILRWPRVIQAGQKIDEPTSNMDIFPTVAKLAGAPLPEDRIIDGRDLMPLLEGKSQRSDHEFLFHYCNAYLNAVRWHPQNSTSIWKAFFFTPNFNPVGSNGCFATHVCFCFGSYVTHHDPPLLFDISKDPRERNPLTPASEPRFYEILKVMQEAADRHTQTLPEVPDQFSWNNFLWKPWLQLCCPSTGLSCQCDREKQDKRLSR
Experimental: All compounds were initially tested for their in cell inhibitory action at a 100 nM concentration.
The inhibitory potency of the synthesized compounds was examined in two ways, including an enzymatic assay and the radioisotope cellular test. […] The radioisotope cellular assay was performed using the MCF-7 cell line in the presence of radiolabeled [^3H]E1S.
The evaluation of the inhibitory effect of each compound with breast cancer cells was performed using a previously described method (27) with some modifications. MCF-7 cells were maintained in Dulbecco’s modified Eagle medium supplemented with 10% fetal bovine serum and cultured in the above medium until 80% confluence. […] After incubation, the medium (0.45 mL) was collected from each well, and the product formed by STS hydrolysis was extracted with toluene (4 mL). STS activity was measured using a MicroBeta radioluminometer (PerkinElmer). Assays with MCF-7 cells were carried out in triplicate.

[1] = blood morphology, blood biochemistry and organ weights of mice with 67NR tumor; details: for spleen weight: 50 mg/kg b.w. per os; for spleen weight / AST / creatinine / urea / ALT: mice with 67NR tumor; for HCT / HGB / MCH / MCHC / MCV / MPV / PCT / PDW / PLT / RBC / RDW: Table S2, mice with 67NR tumor, 50 mg/kg; for AST / creatinine / urea / ALT: Table S3, plasma, 50 mg/kg per os, N=9
Experimental: At the end of the study, the autopsy of the animals was performed: blood was collected for further analyses of the morphology (Table S2, Supporting Information) and biochemistry (Table S3 and Figure S6, Supporting Information) and for the determination of the plasma estradiol level using the ELISA method.
Mice were injected orthotopically (in the mammary gland fat pad) with 67NR mouse mammary tumor cells derived from in vitro culture (1.5 × 10^5 cells/0.05 mL Hanks fluid/mouse). The growth of tumors has been observed. […] Animals were observed during the next 17 days and euthanized. During observation, body weight and tumor growth were monitored three times a week. The volume of the tumors was calculated according to the following formula: TV = a^2·b/2 [mm^3], (where: a—width and b—length of the tumor). Blood, tumor tissue, and liver were harvested during autopsy for further analyses. Blood aliquots (about 500 μL) were collected in EDTA containing vials for morphology analysis (Mythic 18 analyzer, Orphee), and then, the plasma was collected (centrifuged at 2500g for 15 min at 4 °C within 1 h after collection) for biochemical parameter analysis (Cobas c111, Roche).

[2] = system: 67NR mouse mammary tumor cells; assay: antitumor activity in 67NR orthotopic mouse breast carcinoma model; format: in vivo, BALB/c mice; details: for tumor growth inhibition (TGI) / mice responded to the treatment / mice with tumor volume reduced by approx. 50% compared to the TV control / body weight of treated tumor-bearing mice (observation) / mice with much larger tumor than the mean control volume: 50 mg/kg b.w. per os; for tumor growth inhibition (TGI): 5 days a week, 67NR tumor, N = 9, vs control group; for mice responded to the treatment / mice with tumor volume reduced by approx. 50% compared to the TV control / mice with much larger tumor than the mean control volume: nine mice/group
Experimental: The tumor volume (TV) and body weight were measured three times a week. Results for individual groups are reported in Figure S5, Supporting Information. Based on TV data, the tumor growth inhibition (TGI) was calculated for groups that received compounds and compared to that of the control group. […] The body weight of the treated animals was monitored during the study, and the body weight change (BWC) index was calculated (Figure 4). […] Body weight loss was observed between D2 and D11 and reached 4.5% at most.
The growth of tumors has been observed.

[3] = target: T2, STS isolated from the human placenta (Homo sapiens, UniProt P08842); assay: radioisotope enzymatic assay with STS isolated from human placenta and [3H]E1S; format: biochemical; details: for remaining activity at 0.5 µM: read-out: residual STS activity [%]; for residual STS activity [%]: 0.5 μM inhibitor concentration, substrate [3H]E1S, 3 nM, triplicate
T2 construct: radioisotope enzymatic assay using STS isolated from the human placenta; from tissue; host or cells: human placenta
T2 sequence (P08842 22-583): T1 sequence (P08842 22-583)
Experimental: The inhibitory potency of the synthesized compounds was examined in two ways, including an enzymatic assay and the radioisotope cellular test. The enzymatic assay was performed using the STS enzyme isolated from human placenta and using radiolabeled [^3H]E1S as a substrate.
The total volume of the reaction mixture was 100 μL. […] After incubation, the reaction mixture (90 μL) was collected from each well, and the product formed by STS hydrolysis was extracted with toluene (0.5 mL). STS activity was measured using a MicroBeta radioluminometer (PerkinElmer). Enzymatic assays were carried out in triplicate.

[4] = target: T3, STS activity in murine livers and tumors (Mus musculus, UniProt P50427); assay: determination of STS activity in murine livers and tumors of treated mice; details: for Residual STS activity [%] Liver: liver tissue of mice treated per os at 50 mg/kg b.w.; for Residual STS activity [%] Tumor: tumor tissue of mice treated per os at 50 mg/kg b.w.
T3 sequence (P50427 23-624): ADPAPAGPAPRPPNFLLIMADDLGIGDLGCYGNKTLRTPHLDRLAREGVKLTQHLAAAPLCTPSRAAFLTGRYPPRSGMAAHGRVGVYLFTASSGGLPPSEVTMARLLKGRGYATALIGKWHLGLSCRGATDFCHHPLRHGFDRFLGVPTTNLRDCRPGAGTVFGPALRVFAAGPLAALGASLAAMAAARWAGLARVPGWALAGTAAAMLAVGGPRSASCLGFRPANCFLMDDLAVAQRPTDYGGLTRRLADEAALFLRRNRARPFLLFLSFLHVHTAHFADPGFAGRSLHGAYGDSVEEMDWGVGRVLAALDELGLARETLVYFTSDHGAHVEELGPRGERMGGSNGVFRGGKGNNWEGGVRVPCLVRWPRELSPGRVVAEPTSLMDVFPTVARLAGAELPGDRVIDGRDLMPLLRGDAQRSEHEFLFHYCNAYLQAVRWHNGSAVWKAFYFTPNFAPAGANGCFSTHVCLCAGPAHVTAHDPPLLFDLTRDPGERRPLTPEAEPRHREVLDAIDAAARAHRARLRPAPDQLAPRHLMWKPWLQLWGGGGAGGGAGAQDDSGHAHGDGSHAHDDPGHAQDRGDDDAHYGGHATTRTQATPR
Experimental: Then, the samples were subjected to sonication in five cycles of 10 s each and centrifuged for 10 min at 14 000g to pellet the tissue debris. Total protein concentrations were determined in the obtained lysates using the Bradford method, and 100 μg of the total protein was used for each reaction as a source of STS activity. […] E1S (4 × 10^4 Bq, 3 nM) and 20 mM Tris-HCl, pH 7.4. The volume of the reaction mixtures was adjusted to 100 μL with water. After incubation, 60 μL of each reaction mixture was collected, and the product formed by STS hydrolysis was extracted with toluene (0.5 mL). STS activity was measured using a MicroBeta radioluminometer (PerkinElmer). Assays were carried out in triplicate.

[5] = format: in vivo; details: Table S1, MTD study, 50 mg/kg
Experimental: The mice were thus weighed, and their general health was observed. […] At the end of the study, the mice were sacrificed by dislocation of the cervical vertebrae, and the internal organs were examined macroscopically.
The mice were weighed, and their general health was observed. […] At the end of the MTD study, the autopsy was performed, and the internal organs (liver, kidney, and spleen) were weighed and macroscopically assessed.

[6] = MCF-7 cells, substrate [3H]E1S, 3 nM

Compound | spleen weight [1] | HCT [1] | HGB [1] | MCH [1] | MCHC [1] | MCV [1] | PCT [1] | PDW [1] | PLT [1] | RBC [1] | RDW [1] | creatinine [1] | urea [1] | remaining activity at 0.001 µM (STS in MCF-7 cells) [%] | remaining activity at 0.01 µM (STS in MCF-7 cells) [%] | remaining activity at 0.1 µM (STS in MCF-7 cells) [%] | IC50 (STS in MCF-7 cells; [6]) [nM] | mice responded to the treatment [2] [mice] | mice with tumor volume reduced by approx. 50% compared to the TV control [2] [mice] | remaining activity at 0.5 µM [3] [%] | other results
NS(=O)(=O)Oc1ccc2c3c(c(=O)oc2c1)CCCCC3 [Irosustat, reference compound] | – | – | – | – | – | – | – | – | – | – | – | – | – | – | – | – | – | – | – | – | IC50 (STS): 8 nM; residual STS activity [%] 1 nM (STS in MCF-7 cells; MCF-7 cells, 1 nM inhibitor, substrate [3H]E1S, 3 nM, triplicate): 16.8% and 16.8 ± 0.5%; residual STS activity [%] 10 nM (STS in MCF-7 cells; MCF-7 cells, 10 nM inhibitor, substrate [3H]E1S, 3 nM, triplicate): 12.9% and 12.9 ± 0.77%; residual STS activity [%] 100 nM (STS in MCF-7 cells; MCF-7 cells, 100 nM inhibitor, substrate [3H]E1S, 3 nM, triplicate): 2.4% and 2.4 ± 0.07%
NS(=O)(=O)Oc1ccc(-c2cn(-c3cccc(F)c3)nn2)cc1 [5g] | Significantly smaller spleens weights | 35±2,4% | 13,5±0,9 g/dL | 18,3±0,9 pg | 38,6±0,6 g/dL | 47,4±2,8 fL | 0,255±0,04% | 26,9±4,8 fL | 508,6±69 x103/uL | 7,4±0,7 x106/uL | 19,1±1,5% | 6,51±1,49 umol/L | 8,83±1,32 mmol/L | 57.3 ± 3.44 | 1 | 1 ± 0.04 | 1.69 ± 0.08 | 8 | 5 | 37.9 ± 1.9 | MPV [1]: 5±0,1 fL; AST [1]: 102,2±23,1 U/L; tumor growth inhibition (TGI) [2]: 42%; Residual STS activity [%] Liver [4]: 13,6%; Residual STS activity [%] Tumor [4]: 5,2%; GRAN [5]: 12,4±1,7%; HCT [5]: 41,1±0,5%; HGB [5]: 15,2±0,2 g/dL; LIMF [5]: 84,3±2,3%; MCH [5]: 17,2±0,2 pg; MCHC [5]: 36,7±0,2 g/dL; MCV [5]: 46,9±0,3 fL; MON [5]: 3,4±0,6%; PLT [5]: 522±33 10x3/uL; RBC [5]: 8,8±0,01 10x6/uL; RDW [5]: 17,4±0,3%; WBC [5]: 4,9±1,3 10x3/uL
NS(=O)(=O)Oc1ccc(-c2cn(-c3cc(Cl)cc(Cl)c3)nn2)cc1 [4b, 4-(1-(3,5-Dichlorophenyl)-1H-1,2,3-triazol-4-yl)phenyl Sulfamate] | Significantly smaller spleens weights | 36,6±2,7% | 13,7±0,9 g/dL | 17,6±0,5 pg | 37,6±0,6 g/dL | 46,8±0,9 fL | 0,248±0,03% | 27,1±3,2 fL | 512,2±72,3 x103/uL | 7,8±0,7 x106/uL | 18,2±0,5% | 4,53±1,48 umol/L | 6,94±0,69 mmol/L | 63.7 ± 2.55 | 17.8 ± 0.62 | 2 ± 0.1 | 1.71 ± 0.05 | 7 | 5 | 13.3 | MPV [1]: 4,9±0,2 fL; ALT [1]: 27,1±3,8 U/L; AST [1]: 86,6±18,5 U/L; side effects and toxicity ([2]; 50 mg/kg): no evidence of side effects and toxicity; body weight of treated tumor-bearing mice (observation) [2]: A body weight increase was observed; residual STS activity [%] [3]: 13.32 ± 0.67%; Residual STS activity [%] Liver [4]: 14,5%; Residual STS activity [%] Tumor [4]: 5,1%; GRAN [5]: 11,0±1,7%; HCT [5]: 44,1±1,3%; HGB [5]: 16,4±0,6 g/dL; LIMF [5]: 85,7±1,7%; MCH [5]: 17,4±0,01 pg; MCHC [5]: 37,1±0,4 g/dL; MCV [5]: 46,9±0,5 fL; MON [5]: 3,3±0,5%; PLT [5]: 533±34 10x3/uL; RBC [5]: 9,4±0,4 10x6/uL; RDW [5]: 17,5±0,6%; WBC [5]: 5,1±1,6 10x3/uL
NS(=O)(=O)Oc1ccc(-c2cn(-c3cccc(Cl)c3)nn2)cc1 [4a, 4-(1-(3-Chlorophenyl)-1H-1,2,3-triazol-4-yl)phenyl Sulfamate] | Significantly smaller spleens weights | 35,9±3,2% | 13,5±1,1 g/dL | 17,7±0,5 pg | 37,6±0,7 g/dL | 47,1±1 fL | 0,250±0,03% | 24,9±3 fL | 503,3±59,8 x103/uL | 7,6±0,8 x106/uL | 18±0,5% | 5,75±1,52 umol/L | 7,92±0,66 mmol/L | 38.2 | 28.1 ± 1.12 | 2.4 ± 0.07 | 1.9 ± 0.06 | 7 | 5 | 19.5 ± 0.97 | MPV [1]: 4,9±0,1 fL; ALT [1]: 27,3±3,9 U/L; AST [1]: 91,7±15,4 U/L; body weight of treated tumor-bearing mice (observation) [2]: A body weight increase was observed; tumor growth inhibition (TGI) [2]: 47%; mice with much larger tumor than the mean control volume [2]: 1 mice; Residual STS activity [%] Liver [4]: 12,1%; Residual STS activity [%] Tumor [4]: 5,8%; GRAN [5]: 13,2±3,6%; HCT [5]: 41±0,2%; HGB [5]: 15,1±0,2 g/dL; LIMF [5]: 83,5±4,1%; MCH [5]: 17,3±0,3 pg; MCHC [5]: 36,9±0,5 g/dL; MCV [5]: 46,8±0,2 fL; MON [5]: 3,3±0,6%; PLT [5]: 518±49 10x3/uL; RBC [5]: 8,8±0,1 10x6/uL; RDW [5]: 17,9±0,6%; WBC [5]: 4,5±0,3 10x3/uL
NS(=O)(=O)Oc1ccc(-c2cn(-c3cc(F)cc(F)c3)nn2)cc1 [5l, 4-(1-(3,5-difluorophenyl)-1H-1,2,3-triazol-4-yl)phenyl sulfamate] | Significantly smaller spleens weights | 34,7±2,1% | 13,3±0,8 g/dL | 17,8±0,3 pg | 38,3±0,4 g/dL | 46,4±0,7 fL | 0,233±0,035% | 29,3±4,6 fL | 463,1±74 x103/uL | 7,5±0,5 x106/uL | 18,4±1% | 5,6±1,65 umol/L | 8,1±0,7 mmol/L | 13.6 | 1 | 1 | 0.21 ± 0.01 | 8 | 3 | 17.3 | tumor growth inhibition (TGI) [2]: 39%; mice with much larger tumor than the mean control volume [2]: 1 mice; residual STS activity [%] [3]: 17.34 ± 0.87%; Residual STS activity [%] Liver [4]: 10,1%; Residual STS activity [%] Tumor [4]: 1,3%; GRAN [5]: 10,6±0,2%; HCT [5]: 42±1,9%; HGB [5]: 15,4±0,5 g/dL; LIMF [5]: 86,6±0,2%; MCH [5]: 17,3±0,1 pg; MCHC [5]: 36,6±0,4 g/dL; MCV [5]: 47,2±0,2 fL; MON [5]: 2,9±0,4%; PLT [5]: 596±64 10x3/uL; RBC [5]: 8,9±0,4 10x6/uL; RDW [5]: 17,3±0,2%; WBC [5]: 4,2±0,6 10x3/uL
